Experiments:
Format in all cases: biochemical
B-Raf V600E = biological target: T1, B-Raf V600E (Homo sapiens, UniProt P15056, V600E); assay: AlphaScreen kinase assay, B-Raf V600E; conditions: read-out: IC50, activity toward kinase B-Raf V600E
T1 construct: P4254. pFastBacBD-CDC37 BRAF D437-K722-X, V600E; His6 with pFastBac HT leader (TEV site) (N); made in house; host or cells: Sf9 (baculovirus; chaperone CDC37 co-expressed)

Fms = biological target: T2, Fms (Homo sapiens, UniProt P07333); assay: AlphaScreen kinase assay, Fms; conditions: read-out: IC50, activity toward kinase Fms
T2 construct: purchased Upstate Biotechnology

Kit = biological target: T3, Kit (Homo sapiens, UniProt P10721); assay: AlphaScreen kinase assay, Kit; conditions: read-out: IC50, activity toward kinase Kit
T3 construct: P1332.N6 BI PTP KIT M552-K948-X COD; His6 (N); made in house; host or cells: E. coli (PTP1B co-expressed)

Flt1 = biological target: T4, Flt1 (Homo sapiens, UniProt P17948); assay: AlphaScreen kinase assay, Flt1; conditions: read-out: IC50, activity toward kinase Flt1
T4 construct: P1826.pETN6 BI-PTP FLT1 M799-D1165-X WT; His6 (N); made in house; host or cells: E. coli (PTP1B co-expressed)
T4 sequence (P17948 with tags, fused parts or gaps): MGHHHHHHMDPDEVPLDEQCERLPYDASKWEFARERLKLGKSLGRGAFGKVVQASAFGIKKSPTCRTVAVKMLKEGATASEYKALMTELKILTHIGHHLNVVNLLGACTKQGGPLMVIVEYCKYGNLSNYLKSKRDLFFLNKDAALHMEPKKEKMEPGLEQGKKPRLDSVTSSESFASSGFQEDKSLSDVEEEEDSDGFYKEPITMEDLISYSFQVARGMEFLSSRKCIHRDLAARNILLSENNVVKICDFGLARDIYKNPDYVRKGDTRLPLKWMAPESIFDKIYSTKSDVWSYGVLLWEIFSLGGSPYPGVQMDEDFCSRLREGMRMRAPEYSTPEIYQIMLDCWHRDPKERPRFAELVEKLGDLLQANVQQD

Jnk3 = biological target: T5, Jnk3 (Homo sapiens, UniProt P53779); assay: AlphaScreen kinase assay, Jnk3; conditions: read-out: IC50, activity toward kinase Jnk3
T5 construct: purchased Upstate Biotechnology

B-Raf = biological target: T6, B-Raf (Homo sapiens, UniProt P15056); assay: AlphaScreen kinase assay, B-Raf; conditions: read-out: IC50, activity toward kinase B-Raf
T6 construct: purchased Upstate Biotechnology

Jnk1 = biological target: T7, Jnk1 (Homo sapiens, UniProt P45983); assay: AlphaScreen kinase assay, Jnk1; conditions: read-out: IC50, activity toward kinase Jnk1
T7 construct: purchased Upstate Biotechnology

Kdr = biological target: T8, Kdr (Homo sapiens, UniProt P35968); assay: Z'-Lyte FRET kinase assay (Invitrogen), Kdr; conditions: read-out: IC50, activity toward kinase Kdr
T8 construct: purchased Invitrogen (assay run by Invitrogen)

Ret = biological target: T9, Ret (Homo sapiens, UniProt P07949); assay: AlphaScreen kinase assay, Ret; conditions: read-out: IC50, activity toward kinase Ret
T9 construct: P1378.pET-SF BI-PTP RET H661-R1012 HIS; made in house
T9 sequence (P07949 with tags, fused parts or gaps): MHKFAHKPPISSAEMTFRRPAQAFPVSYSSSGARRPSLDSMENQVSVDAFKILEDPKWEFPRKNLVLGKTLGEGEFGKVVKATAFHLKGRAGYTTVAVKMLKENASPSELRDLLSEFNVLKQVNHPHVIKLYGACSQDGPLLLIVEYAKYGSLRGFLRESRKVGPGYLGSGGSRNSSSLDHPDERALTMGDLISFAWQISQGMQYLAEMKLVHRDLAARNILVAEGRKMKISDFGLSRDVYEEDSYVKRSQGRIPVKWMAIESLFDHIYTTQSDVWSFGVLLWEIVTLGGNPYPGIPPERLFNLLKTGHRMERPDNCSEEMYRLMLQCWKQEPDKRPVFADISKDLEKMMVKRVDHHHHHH

FGFR1 = biological target: T10, FGFR1 (Homo sapiens, UniProt P11362, C488A/C584S); assay: AlphaScreen kinase assay, FGFR1; conditions: read-out: IC50, activity toward kinase FGFR
T10 construct: P1351.pET N6 BI-PTP FGFR A458-E765-X C488A, C584S; made in house; host or cells: E. coli (PTP1B co-expressed)

c-Raf-1 = biological target: T11, c-Raf-1 (Homo sapiens, UniProt P04049); assay: AlphaScreen kinase assay, c-Raf-1; conditions: read-out: IC50, activity toward kinase c-Raf-1
T11 construct: purchased Upstate Biotechnology

Measured: IC50

T6 sequence (P15056 whole entry): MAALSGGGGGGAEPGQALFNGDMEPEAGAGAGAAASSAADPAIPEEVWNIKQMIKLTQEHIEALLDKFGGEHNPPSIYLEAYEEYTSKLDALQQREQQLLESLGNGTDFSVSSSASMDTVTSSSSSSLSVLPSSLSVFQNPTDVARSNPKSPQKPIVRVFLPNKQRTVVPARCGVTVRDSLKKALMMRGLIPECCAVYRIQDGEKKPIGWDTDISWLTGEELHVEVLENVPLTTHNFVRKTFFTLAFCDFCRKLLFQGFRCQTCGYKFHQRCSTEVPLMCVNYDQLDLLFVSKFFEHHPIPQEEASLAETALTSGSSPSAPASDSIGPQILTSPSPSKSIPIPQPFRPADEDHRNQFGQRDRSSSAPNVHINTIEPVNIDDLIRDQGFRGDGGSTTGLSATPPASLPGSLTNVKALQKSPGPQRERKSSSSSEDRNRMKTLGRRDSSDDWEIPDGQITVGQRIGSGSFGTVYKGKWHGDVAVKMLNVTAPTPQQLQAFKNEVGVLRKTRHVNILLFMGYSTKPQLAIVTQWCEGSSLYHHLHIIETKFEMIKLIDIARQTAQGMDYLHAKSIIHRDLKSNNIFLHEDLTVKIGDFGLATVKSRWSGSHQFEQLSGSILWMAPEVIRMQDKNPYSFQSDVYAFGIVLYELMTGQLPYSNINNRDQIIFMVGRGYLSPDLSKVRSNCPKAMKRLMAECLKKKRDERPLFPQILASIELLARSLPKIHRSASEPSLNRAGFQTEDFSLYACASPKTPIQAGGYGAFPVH
T1 sequence (P15056 with tags, fused parts or gaps V600E): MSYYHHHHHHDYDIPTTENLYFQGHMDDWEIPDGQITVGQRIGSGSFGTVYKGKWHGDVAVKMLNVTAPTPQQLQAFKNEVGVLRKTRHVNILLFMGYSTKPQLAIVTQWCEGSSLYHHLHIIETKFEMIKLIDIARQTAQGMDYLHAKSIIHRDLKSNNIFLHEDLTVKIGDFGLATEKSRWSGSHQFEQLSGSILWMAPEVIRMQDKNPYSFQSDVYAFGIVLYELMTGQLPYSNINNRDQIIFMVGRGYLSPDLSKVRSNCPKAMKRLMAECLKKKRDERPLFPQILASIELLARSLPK
T8 sequence (P35968 20-1356): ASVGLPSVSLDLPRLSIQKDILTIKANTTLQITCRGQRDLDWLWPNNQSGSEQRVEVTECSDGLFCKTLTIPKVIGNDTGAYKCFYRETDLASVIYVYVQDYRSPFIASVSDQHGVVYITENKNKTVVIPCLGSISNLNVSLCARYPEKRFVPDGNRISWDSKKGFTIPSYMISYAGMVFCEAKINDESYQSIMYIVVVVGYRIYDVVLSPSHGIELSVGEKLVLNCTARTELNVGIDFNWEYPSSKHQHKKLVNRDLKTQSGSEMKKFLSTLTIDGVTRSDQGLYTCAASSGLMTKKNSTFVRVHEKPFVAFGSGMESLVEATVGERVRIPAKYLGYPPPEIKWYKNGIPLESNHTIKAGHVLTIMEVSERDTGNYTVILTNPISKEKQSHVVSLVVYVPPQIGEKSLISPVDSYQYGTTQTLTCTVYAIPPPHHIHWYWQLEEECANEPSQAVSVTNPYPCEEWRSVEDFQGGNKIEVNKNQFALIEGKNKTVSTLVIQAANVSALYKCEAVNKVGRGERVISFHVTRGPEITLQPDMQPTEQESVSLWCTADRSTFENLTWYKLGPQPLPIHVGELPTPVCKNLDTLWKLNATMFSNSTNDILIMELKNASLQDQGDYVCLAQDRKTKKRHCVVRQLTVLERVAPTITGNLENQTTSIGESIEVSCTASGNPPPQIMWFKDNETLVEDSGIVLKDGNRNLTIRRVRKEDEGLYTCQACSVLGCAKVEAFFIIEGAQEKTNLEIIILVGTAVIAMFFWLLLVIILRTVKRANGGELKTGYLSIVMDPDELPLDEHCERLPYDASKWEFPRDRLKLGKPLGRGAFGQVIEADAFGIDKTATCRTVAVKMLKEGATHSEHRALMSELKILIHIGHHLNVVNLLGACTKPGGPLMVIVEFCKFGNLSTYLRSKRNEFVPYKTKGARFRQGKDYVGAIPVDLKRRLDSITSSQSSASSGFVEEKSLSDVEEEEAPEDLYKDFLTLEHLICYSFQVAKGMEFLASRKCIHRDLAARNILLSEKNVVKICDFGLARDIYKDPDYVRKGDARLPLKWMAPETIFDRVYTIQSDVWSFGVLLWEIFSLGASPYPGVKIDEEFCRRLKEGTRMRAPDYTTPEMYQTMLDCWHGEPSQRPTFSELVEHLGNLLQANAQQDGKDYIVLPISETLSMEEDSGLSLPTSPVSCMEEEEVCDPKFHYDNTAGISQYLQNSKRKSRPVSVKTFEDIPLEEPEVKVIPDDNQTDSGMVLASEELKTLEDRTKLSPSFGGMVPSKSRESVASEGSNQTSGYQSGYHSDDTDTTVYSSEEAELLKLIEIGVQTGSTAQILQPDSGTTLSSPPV
T10 sequence (P11362 458-765 C488A/C584S): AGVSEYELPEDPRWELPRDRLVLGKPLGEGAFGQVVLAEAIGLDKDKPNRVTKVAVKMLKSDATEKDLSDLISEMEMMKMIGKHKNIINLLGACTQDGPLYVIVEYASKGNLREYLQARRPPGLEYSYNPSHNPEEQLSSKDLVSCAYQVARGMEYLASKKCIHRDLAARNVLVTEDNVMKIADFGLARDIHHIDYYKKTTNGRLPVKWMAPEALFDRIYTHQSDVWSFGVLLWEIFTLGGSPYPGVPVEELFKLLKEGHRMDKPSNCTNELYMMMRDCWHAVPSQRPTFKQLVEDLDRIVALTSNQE
T7 sequence (P45983 whole entry): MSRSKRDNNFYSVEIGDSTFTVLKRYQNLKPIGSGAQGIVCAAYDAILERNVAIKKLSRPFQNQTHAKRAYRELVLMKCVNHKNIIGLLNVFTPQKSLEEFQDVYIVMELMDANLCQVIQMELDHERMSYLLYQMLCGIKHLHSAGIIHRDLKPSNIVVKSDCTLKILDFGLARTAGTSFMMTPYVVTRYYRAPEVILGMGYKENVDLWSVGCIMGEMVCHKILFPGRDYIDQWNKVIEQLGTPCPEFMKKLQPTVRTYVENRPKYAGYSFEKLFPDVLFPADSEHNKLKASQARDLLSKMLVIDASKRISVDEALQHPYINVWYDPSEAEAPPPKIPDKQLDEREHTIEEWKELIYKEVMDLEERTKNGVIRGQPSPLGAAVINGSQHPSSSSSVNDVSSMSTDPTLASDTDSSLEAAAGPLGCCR
T2 sequence (P07333 20-972): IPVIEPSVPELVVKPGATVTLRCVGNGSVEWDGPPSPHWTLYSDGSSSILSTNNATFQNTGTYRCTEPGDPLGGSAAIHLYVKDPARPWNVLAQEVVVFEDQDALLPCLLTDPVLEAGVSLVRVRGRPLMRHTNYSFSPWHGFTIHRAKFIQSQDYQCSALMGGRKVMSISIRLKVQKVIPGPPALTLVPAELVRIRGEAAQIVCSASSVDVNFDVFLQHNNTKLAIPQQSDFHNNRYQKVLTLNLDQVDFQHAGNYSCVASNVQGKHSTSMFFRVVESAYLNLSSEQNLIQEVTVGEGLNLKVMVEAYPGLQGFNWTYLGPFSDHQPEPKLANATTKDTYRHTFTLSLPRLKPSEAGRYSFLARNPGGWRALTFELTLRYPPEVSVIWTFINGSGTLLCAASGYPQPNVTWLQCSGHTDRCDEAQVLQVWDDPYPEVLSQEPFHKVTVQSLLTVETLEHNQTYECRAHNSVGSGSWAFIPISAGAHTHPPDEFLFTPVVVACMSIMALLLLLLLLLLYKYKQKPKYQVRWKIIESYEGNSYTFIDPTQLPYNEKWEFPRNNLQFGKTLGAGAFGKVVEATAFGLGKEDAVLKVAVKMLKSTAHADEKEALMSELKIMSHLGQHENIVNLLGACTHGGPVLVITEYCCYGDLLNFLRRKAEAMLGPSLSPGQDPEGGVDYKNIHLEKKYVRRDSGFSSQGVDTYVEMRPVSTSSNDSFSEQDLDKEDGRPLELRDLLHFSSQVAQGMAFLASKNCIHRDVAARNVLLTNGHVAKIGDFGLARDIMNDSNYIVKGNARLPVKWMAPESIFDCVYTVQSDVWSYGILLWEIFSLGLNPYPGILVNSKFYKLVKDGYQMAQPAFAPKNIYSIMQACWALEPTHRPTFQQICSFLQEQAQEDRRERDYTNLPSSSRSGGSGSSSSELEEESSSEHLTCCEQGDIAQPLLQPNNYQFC
T3 sequence (P10721 with tags, fused parts or gaps): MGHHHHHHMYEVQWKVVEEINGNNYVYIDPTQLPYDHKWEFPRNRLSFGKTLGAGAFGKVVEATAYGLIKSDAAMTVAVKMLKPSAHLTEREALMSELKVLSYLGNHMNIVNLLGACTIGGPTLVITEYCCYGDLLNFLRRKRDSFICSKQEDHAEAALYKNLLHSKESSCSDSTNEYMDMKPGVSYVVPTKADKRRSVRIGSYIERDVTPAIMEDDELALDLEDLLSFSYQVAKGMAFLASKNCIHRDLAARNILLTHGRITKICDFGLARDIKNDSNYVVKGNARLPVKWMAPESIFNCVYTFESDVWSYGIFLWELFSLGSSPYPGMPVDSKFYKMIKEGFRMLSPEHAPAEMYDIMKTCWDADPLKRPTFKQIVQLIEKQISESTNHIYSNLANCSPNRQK
T5 sequence (P53779 whole entry): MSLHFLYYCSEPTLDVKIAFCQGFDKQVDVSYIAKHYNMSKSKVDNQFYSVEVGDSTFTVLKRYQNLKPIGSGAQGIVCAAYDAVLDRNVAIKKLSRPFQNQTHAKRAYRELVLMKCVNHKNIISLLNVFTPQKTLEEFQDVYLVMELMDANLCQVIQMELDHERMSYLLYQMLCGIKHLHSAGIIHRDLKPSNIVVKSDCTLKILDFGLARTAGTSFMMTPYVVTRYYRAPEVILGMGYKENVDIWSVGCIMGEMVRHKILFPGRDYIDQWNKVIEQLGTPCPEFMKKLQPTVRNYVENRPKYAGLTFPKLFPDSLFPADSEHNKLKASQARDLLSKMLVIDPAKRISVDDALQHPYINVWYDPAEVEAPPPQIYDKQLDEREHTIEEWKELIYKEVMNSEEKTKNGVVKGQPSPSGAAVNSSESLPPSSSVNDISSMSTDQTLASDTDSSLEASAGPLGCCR

c1ccc(COc2ccccc2Nc2c[nH]c3ncccc23)cc1 [Compound P-1505, (2-Benzyloxy-phenyl)-(1H-pyrrolo[2,3-b]pyridin-3-yl)-amine]
≤ 10 µM: B-Raf V600E | Fms | Kit | Flt1 | Jnk3

CCCCNC(=O)Nc1ccc(F)c(C(=O)c2c[nH]c3ncc(Br)cc23)c1 [Compound P-1637, 1-[3-(5-Bromo-1H-pyrrolo[2,3-b]pyridine-3-carbonyl)-4-fluoro-phenyl]-3-butyl-urea]
≤ 10 µM: B-Raf V600E | Fms | B-Raf | Jnk1

Oc1ccc(Cc2c[nH]c3ncc(-c4ccsc4)cc23)cc1O [Compound P-0683]
not listed: Fms | Jnk1 | c-Raf-1
≤ 10 µM: all other assays above

c1csc(-c2ccnc3[nH]ccc23)c1 [Compound P-0431]
≤ 10 µM: Jnk1

O=C(Nc1ccccc1)Nc1cccc(C(=O)c2c[nH]c3ncccc23)c1 [Compound P-1703, 1-Phenyl-3-[3-(1H-pyrrolo[2,3-b]pyridine-3-carbonyl)-phenyl]-urea]
≤ 10 µM: B-Raf V600E | Fms | Kit | Jnk3 | B-Raf

O=C(c1ccccc1O)c1c[nH]c2ncc(Br)cc12 [Compound P-0263]
≤ 10 µM: Kit | Jnk3

O=C(Nc1cccc(C(=O)c2c[nH]c3ncccc23)c1)Nc1ccc(C(F)(F)F)cc1Cl [Compound P-1713, 1-(2-Chloro-4-trifluoromethyl-phenyl)-3-[3-(1H-pyrrolo[2,3-b]pyridine-3-carbonyl)-phenyl]-urea]
≤ 10 µM: B-Raf V600E | Fms | Kit | c-Raf-1 | Jnk3 | B-Raf

O=C(Nc1ccc(F)cc1)Nc1cccc(C(=O)c2c[nH]c3ncccc23)c1 [Compound P-1704, 1-(4-Fluoro-phenyl)-3-[3-(1H-pyrrolo[2,3-b]pyridine-3-carbonyl)-phenyl]-urea]
≤ 10 µM: B-Raf V600E | Fms | Kit | Jnk3 | B-Raf

Cc1cc(C(=O)c2c[nH]c3ncc(-c4cccc(N)c4)cc23)no1 [Compound P-0796]
≤ 10 µM: Kdr | Ret | Kit

O=[N+]([O-])c1cc(S(=O)(=O)NCc2c[nH]c3ncccc23)sc1Cl [Compound P-0777]
≤ 10 µM: Kdr | B-Raf V600E | Flt1

Cc1cc(C(=O)c2c[nH]c3ncc(-c4ccsc4)cc23)no1 [Compound P-0640]
≤ 10 µM: Kdr | Ret | Kit | Flt1 | Jnk3 | FGFR1

CCCS(=O)(=O)Nc1cccc(C(=O)c2c[nH]c3ncc(-c4cccnc4)cc23)c1C [Compound P-1631]
≤ 10 µM: B-Raf V600E | Fms | B-Raf | Jnk1

c1cncc(-c2cnc3[nH]cc(Cc4ccc5c(c4)OCCO5)c3c2)c1 [Compound P-1529, 3-(2,3-Dihydro-benzo[1,4]dioxin-6-ylmethyl)-5-pyridin-3-yl-1H-pyrrolo[2,3-b]pyridine]
not listed: Jnk1 | Kdr | Ret | c-Raf-1
≤ 10 µM: all other assays above

CC(=O)Nc1cccc(Nc2cnc3[nH]ccc3c2)c1 [Compound P-1032]
≤ 10 µM: Jnk3

CCCCNC(=O)Nc1ccc(F)c(C(=O)c2c[nH]c3ncc(-c4cccc(OC(F)(F)F)c4)cc23)c1 [Compound P-1660, 1-Butyl-3-{4-fluoro-3-[5-(3-trifluoromethoxy-phenyl)-1H-pyrrolo[2,3-b]pyridine-3-carbonyl]-phenyl}-urea]
≤ 10 µM: B-Raf V600E | Fms | B-Raf | Jnk1

COc1cccc(C(=O)c2c[nH]c3ncc(-c4ccccc4)cc23)c1 [Compound P-0371]
≤ 10 µM: Ret | Kit | Flt1 | Jnk3 | FGFR1

Clc1cccc(Nc2c[nH]c3ncccc23)c1 [Compound P-1489, (3-Chloro-phenyl)-(1H-pyrrolo[2,3-b]pyridin-3-yl)-amine]
≤ 10 µM: Fms | Kit | Jnk3

COc1ccc(CNc2ccc(Cc3c[nH]c4ncccc34)cn2)cc1 [Compound P-0274]
≤ 10 µM: Kdr | B-Raf V600E | Fms | Flt1 | FGFR1

Cc1ccc(S(=O)(=O)Nc2ccc(F)c(C(=O)c3c[nH]c4ncc(Cl)cc34)c2F)cc1 [Compound P-1842, N-[3-(5-Chloro-1H-pyrrolo[2,3-b]pyridine-3-carbonyl)-2,4-difluoro-phenyl]-4-methyl-benzenesulfonamide]
≤ 10 µM: B-Raf V600E | B-Raf | Jnk1

Oc1cccc(C(O)c2c[nH]c3ncc(-c4cccs4)cc23)c1 (centres unmarked) [Compound P-0710]
≤ 10 µM: B-Raf V600E | Ret | Jnk3 | FGFR1

Clc1ccc(-c2cnc3[nH]ccc3c2)s1 [Compound P-1088]
≤ 10 µM: Jnk3

c1ccc2sc(-c3cnc4[nH]ccc4c3)cc2c1 [Compound P-1087]
≤ 10 µM: Jnk3

COc1cccc(Nc2c[nH]c3ncccc23)c1 [Compound P-1490, (3-Methoxy-phenyl)-(1H-pyrrolo[2,3-b]pyridin-3-yl)-amine]
≤ 10 µM: Fms | Kit | Jnk3

COc1ccc(F)c(C(=O)c2c[nH]c3ncccc23)c1 [Compound P-0103]
≤ 10 µM: Kdr | Fms | Ret | Kit | Flt1 | FGFR1

COc1cnc2[nH]cc(Sc3ccccn3)c2c1 [Compound P-1561]
≤ 10 µM: B-Raf V600E | Jnk3 | FGFR1

NC(=O)c1ccc(-c2cnc3[nH]ccc3c2)cc1 [Compound P-0659]
≤ 10 µM: Ret | Kit | Jnk3

c1cc(Cc2c[nH]c3ncccc23)cc(OCCOC2CCCCO2)c1 (centres unmarked) [Compound P-0326]
≤ 10 µM: Kdr | Kit | Flt1 | FGFR1

OC(c1ccc(OCc2nc3ccccc3[nH]2)c(F)c1)c1c[nH]c2ncccc12 (centres unmarked) [Compound P-1898]
≤ 10 µM: Jnk1

O=C(Nc1cccc(F)c1)Nc1cccc(C(=O)c2c[nH]c3ncccc23)c1 [Compound P-1716, 1-(3-Fluoro-phenyl)-3-[3-(1H-pyrrolo[2,3-b]pyridine-3-carbonyl)-phenyl]-urea]
≤ 10 µM: B-Raf V600E | Fms | Jnk3 | B-Raf

COc1ccc(Nc2ccc3cc[nH]c3n2)cc1 [Compound P-1355, (4-Methoxy-phenyl)-(1H-pyrrolo[2,3-b]pyridin-6-yl)-amine]
≤ 10 µM: Jnk3

O=C(c1ccc(-c2cnc3[nH]ccc3c2)cc1)N1CCCC1 [Compound P-0625]
≤ 10 µM: Kit | Jnk3

O=C(c1ccccc1O)c1c[nH]c2ncc(-c3cccs3)cc12 [Compound P-0757]
≤ 10 µM: Ret | Kit | Flt1 | Jnk3

c1coc(-c2c[nH]c3ncccc23)c1 [Compound P-0455]
≤ 10 µM: Kdr | Flt1
